Results: publication PMC9147192, “Small Molecule Arranged Thermal Proximity Coaggregation (smarTPCA)—A Novel Approach to Characterize Protein–Protein Interactions in Living Cells by Similar Isothermal Dose–Responses” (International Journal of Molecular Sciences, 2022)

Columns and labels:
OGDH = biological target: T1, OGDH (Homo sapiens, UniProt Q02218); test: TPP-CCR in living HL-60 cells; format: cell-based
T1 construct: endogenous in cells; host or cells: HL-60 (ATCC CCL-240)
T1 sequence (Q02218 41-1023): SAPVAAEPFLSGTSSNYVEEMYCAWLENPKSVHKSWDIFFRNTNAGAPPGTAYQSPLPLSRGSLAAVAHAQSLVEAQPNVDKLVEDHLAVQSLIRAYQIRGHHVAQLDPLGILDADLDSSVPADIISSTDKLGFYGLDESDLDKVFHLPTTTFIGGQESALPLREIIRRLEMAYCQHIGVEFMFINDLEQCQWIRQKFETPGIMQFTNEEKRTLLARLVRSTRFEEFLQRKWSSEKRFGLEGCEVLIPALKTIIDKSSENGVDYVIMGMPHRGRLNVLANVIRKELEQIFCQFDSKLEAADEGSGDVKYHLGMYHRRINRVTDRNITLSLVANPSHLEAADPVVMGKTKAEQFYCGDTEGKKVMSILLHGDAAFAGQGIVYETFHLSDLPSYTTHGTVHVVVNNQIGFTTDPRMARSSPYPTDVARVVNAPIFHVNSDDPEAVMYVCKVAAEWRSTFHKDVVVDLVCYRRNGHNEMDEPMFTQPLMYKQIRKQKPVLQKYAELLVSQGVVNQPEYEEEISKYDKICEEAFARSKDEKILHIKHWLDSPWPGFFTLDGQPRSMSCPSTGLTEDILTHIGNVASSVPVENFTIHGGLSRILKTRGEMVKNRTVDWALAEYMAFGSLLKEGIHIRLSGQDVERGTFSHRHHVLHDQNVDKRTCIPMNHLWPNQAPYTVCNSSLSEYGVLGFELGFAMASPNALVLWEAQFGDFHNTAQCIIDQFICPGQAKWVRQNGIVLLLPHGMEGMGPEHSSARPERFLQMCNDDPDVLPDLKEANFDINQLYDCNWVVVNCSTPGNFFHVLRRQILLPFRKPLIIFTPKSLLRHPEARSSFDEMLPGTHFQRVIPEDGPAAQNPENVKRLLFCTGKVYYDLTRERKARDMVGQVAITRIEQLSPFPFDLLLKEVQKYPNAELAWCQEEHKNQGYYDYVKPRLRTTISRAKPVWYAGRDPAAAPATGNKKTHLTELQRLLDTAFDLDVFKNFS

FECH = biological target: T2, FECH (Homo sapiens, UniProt P22830); test: TPP-CCR in living HL-60 cells; format: cell-based
T2 construct: endogenous in cells; host or cells: HL-60 (ATCC CCL-240)
T2 sequence (P22830 55-423): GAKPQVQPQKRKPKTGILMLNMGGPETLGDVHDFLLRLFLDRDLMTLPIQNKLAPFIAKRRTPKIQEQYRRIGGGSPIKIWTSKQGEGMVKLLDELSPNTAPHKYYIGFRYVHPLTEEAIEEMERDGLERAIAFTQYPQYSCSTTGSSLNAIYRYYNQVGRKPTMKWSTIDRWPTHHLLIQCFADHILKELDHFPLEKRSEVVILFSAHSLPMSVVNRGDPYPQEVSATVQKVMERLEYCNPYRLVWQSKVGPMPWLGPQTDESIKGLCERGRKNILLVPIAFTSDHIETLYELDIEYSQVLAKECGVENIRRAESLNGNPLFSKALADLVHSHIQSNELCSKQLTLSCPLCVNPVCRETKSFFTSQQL

[1] = living HL-60 cells, […] °C, TMT-MS

Structure (SMILES): Cc1cnc(Nc2ccc(F)cc2Cl)nc1-c1c[nH]c(C(=O)N[C@H](CO)c2cccc(Cl)c2)c1 [ERK 11e]
- Hill slope (OGDH; TPP-CCR, living cells, OGDH): 0.43
- EC50 (OGDH; [1]): 417 nM
- Hill slope (OGDH) (OGDH; [1]): 0.43
- Hill slope (FECH; TPP-CCR, living cells, FECH): 0.38
- EC50 (FECH; [1]): 631 nM
- Hill slope (FECH) (FECH; [1]): 0.38
